Experimental data: patent US20110020801A1, “Carboxylesterase-1 Polymorphisms and Methods of Use Therefor” (priority 2007, published 2011)

Legend:
WT CES1 = target: T1, WT CES1 (Homo sapiens, UniProt P23141); experiment: MPH hydrolysis to ritalinic acid by S9 of cells expressing WT CES1 (HPLC); type: biochemical; conditions: S9 0.5 mg/mL, 37° C., 2 hours, mean ± S.D. (n = 3), listed as d-isomer
T1 construct: inserting a stop codon after CES1A1 gene to yield the constructs expressing CES1 without V5-His tag; expressed in transfected cells
T1 sequence (P23141 18-567): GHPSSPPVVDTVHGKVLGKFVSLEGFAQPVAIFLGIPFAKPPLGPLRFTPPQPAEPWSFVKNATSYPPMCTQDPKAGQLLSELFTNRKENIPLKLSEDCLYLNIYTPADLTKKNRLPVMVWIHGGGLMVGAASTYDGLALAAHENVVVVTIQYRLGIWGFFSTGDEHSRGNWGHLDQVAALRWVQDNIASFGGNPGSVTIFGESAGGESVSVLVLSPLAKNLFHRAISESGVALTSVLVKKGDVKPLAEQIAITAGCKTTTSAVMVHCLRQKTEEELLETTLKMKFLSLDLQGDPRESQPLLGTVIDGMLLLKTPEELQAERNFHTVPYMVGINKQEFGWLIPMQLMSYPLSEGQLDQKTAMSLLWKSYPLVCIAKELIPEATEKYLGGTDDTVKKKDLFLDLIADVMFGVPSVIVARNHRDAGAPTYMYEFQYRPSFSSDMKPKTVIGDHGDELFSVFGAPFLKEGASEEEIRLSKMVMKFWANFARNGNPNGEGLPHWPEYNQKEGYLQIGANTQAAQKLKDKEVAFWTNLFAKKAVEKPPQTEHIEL
Text: (§1) The desired plasmid was designed such that the recombinant CES1 would be expressed in mammalian cells with a V5-His tag to facilitate detection and purification. Additionally, another plasmid was generated by inserting a stop codon after CES1A1 gene to yield the constructs expressing CES1 without V5-His tag. […] Thus, only untagged CES1 and its associated mutants were used in the enzymatic hydrolysis study. Two constructs of CES1 mutations, p.Gly143Glu and p.Asp260fs, were generated using a site-directed mutagenesis assay. All constructs were subjected to DNA sequencing analysis to confirm that the desired plasmids were obtained. The identified CES1A1 plasmids (WT, p.Gly143Glu, and p.Asp260fs) were co-transfected with pOG44 plasmid at a ratio of 1:10 into Flp-In™-293 cells using […] (Invitrogen, Carlsbad, Calif.). Additionally, the self-ligated pcDNA5/FRT/V5-His-TOPO® vector was included as a vector control. Twenty-four hours after transfection, cells were washed with PBS and fresh complete medium (Dulbecco's modified Eagle's medium containing 10% fetal bovine serum) was added. […]
(§2) After attaining approximately 95% confluence, cells were rinsed and harvested in PBS containing 10 mM HEPES (pH 7.4). […] The protein concentration was determined using a Pierce BCA assay kit (Rockford, Ill.).
(§3) For the study of MPH hydrolysis, the reaction was conducted in 1.5 mL eppendorf tubes with a final S9 concentration of 0.5 mg/mL at a total volume of 100 μL. […] Concentrations of the primary phase I MPH metabolite produced via hydrolysis, ritalinic acid (RA), was determined utilizing an established HPLC method described below.
(§4) Thus, following the enzymatic assay, the values determined for spontaneous PNP and RA hydrolysis were subtracted from the total PNP and RA production. […] All collected data were fit to the Michaelis-Menten equation, and kinetic parameters were calculated using nonlinear regression analysis with Graphpad Prism software (Graphpad Software Inc., San Diego, Calif.) […]

p.Asp260fs CES1 = target: T2, p.Asp260fs CES1 (Homo sapiens, UniProt P23141); experiment: MPH hydrolysis to ritalinic acid by S9 of cells expressing p.Asp260fs CES1 (HPLC); type: biochemical; conditions: S9 500 μg/ml, even at very high S9 concentration (2 mg/ml); 37° C., 2 h
T2 construct: a frameshift mutation that alters residues 260-299 and causes early truncation at a premature stop codon; expressed in transfected cells
T2 sequence (P23141 with tags, fused parts or gaps): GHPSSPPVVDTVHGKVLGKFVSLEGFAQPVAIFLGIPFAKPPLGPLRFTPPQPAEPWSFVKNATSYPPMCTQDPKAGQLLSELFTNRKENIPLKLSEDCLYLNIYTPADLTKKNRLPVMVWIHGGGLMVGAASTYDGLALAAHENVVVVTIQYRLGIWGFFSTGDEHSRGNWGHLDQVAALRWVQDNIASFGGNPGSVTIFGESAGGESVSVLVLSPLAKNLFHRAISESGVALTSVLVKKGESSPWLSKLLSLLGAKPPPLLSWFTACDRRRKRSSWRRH
Text: as §1, §2, §3, §4

In the case of COC(=O)[C@H](c1ccccc1)[C@H]1CCCCN1 [d-MPH, methylphenidate], the Vmax (WT CES1) is reported as 177.2 pmole/min/mg protein and the “catalytic activity towards MPH hydrolysis” value (p.Asp260fs CES1) is reported as “failed to show any hydrolytic activity”.
